Assay results from US10316019B2, “Method for preparing the anhydrous crystalline form of isoniazid-derived hydrazone, thus produced crystalline polymorph of the anyhydrous form, use thereof for the treatment of alzheimer's disease, parkinsonism and other neurodegenerative disorders, and pharamceutical composition” (FACULDADDES CATÓLICAS, Associação sem fins Lucrativos, …, priority 2014, dated 2019).

How the values were obtained:
[1] = tested on: β-amyloid peptide and Zn(II); test: 2D 1H×15N HSQC NMR competition for Zn(II) bound to β-amyloid peptide; format: binding
[2] = tested on: α-synuclein and Cu(II)/Cu(I); test: 1H NMR competition for Cu(II)/Cu(I) bound to α-synuclein; format: binding
Wistar male rats = test: Acute toxicity test, intraperitoneal injection; format: in vivo; conditions: i.p. up to 300 mg kg^−1, Wistar male rats

Q: How did the “Direct interaction with β-amyloid peptide” value ([1]; 1D and 2D NMR) turn out when O=C(N/N=C/c1ccc2cccc(O)c2n1)c1ccncc1 [INHHQ, 8-hydroxyquinoline-2-carboxaldehyde isonicotinoyl hydrazone] was run?
A: does not interact directly

Q: And the “Effect on Aβ HSQC signals in the presence of Zn(II) (Zn(II)-Aβ interaction)” value ([1]; INHHQ 4 eq. added to β-amyloid peptide + Zn(II) 1 eq.)?
A: partial intensity recovery for all Aβ signals

Q: And the “Direct interaction with α-synuclein” value ([2]; 1D and 2D NMR)?
A: does not interact directly

Q: What about the “Effect on α-synuclein methionine 1H NMR signals in the presence of copper (Cu-α-synuclein interaction)” value ([2]; INHHQ 4 eq. added to α-synuclein + Cu(II)/Cu(I) 1 eq.) of the same compound?
A: recovery of the original methionine signals' position

Q: And the Behavioral changes (Wistar male rats; 72 h)?
A: no behavioral changes

Q: And the “Macroscopic organ abnormalities at dissection” value (Wistar male rats; after sacrifice)?
A: no macroscopic abnormalities
